We go through eight molecules from US9187455B2, “Substituted pyridazines as PDE10A inhibitors” (Hoffmann-La Roche Inc., priority 2009, dated 2015).

pIC50: −log10 of the molar value.

T1 sequence (Q9Y233 715-1055): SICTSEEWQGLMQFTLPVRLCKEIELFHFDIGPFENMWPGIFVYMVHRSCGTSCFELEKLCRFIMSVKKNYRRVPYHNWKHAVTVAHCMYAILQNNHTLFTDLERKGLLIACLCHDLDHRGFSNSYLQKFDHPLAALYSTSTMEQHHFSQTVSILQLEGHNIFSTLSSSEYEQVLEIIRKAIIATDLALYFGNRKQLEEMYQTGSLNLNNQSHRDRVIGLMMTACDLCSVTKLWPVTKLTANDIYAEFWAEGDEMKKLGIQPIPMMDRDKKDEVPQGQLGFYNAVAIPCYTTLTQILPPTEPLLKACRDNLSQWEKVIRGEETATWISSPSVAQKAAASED

For one experiment, the system named is rats.
Assay: not given
The note with it: sub-chronic treatment with PCP, Rodefer et al. 2005; cited from earlier work.
With `COc1ccc(Cc2nccc3cc(OC)c(OC)cc23)cc1OC` [papaverine, Papaverine], the “effect on deficits in extra-dimensional shift learning” value was “attenuate the deficits in the extra-dimensional shift learning”.

Another experiment has as its target T1, PDE10A2 (Homo sapiens, UniProt Q9Y233).
T1 construct: residues serine 449 to aspartate 789; His6 (H6) with Gateway linker and thrombin cleavage site (N, cleaved yes); made in house; host or cells: E. coli BL21(DE3) pLysS
Description: PDE10A2 Scintillation Proximity Assay (SPA), [3H]-cGMP hydrolysis. The format is biochemical. As to conditions: catalytic domain of human PDE10A2 (S449-D789), 0.25 nM enzyme, 50 nM cGMP + 50 nM [3H]-cGMP, 30 minutes at room temperature; read-out: PDE10A2 inhibition IC50. In short, it runs like this: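 Recombinant human PDE10A2 catalytic domain (S449–D789, E. coli-expressed), 0.25 nM, with 50 nM cGMP plus 50 nM [3H]-cGMP in 20 mM HEPES/10 mM MgCl2, pH 7.5, 30 min at room temperature. Stopped with YSi-SPA beads in zinc sulphate; counts over a compound concentration range gave IC50.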
Turning to `N#Cc1cc(-n2ccc(=O)c(-c3ccnn3-c3ccccc3F)n2)ccn1` [Example 96, 4-{3-[2-(2-Fluoro-phenyl)-2H-pyrazol-3-yl]-4-oxo-4H-pyridazin-1-yl}-pyridine-2-carbonitrile], the negative-log IC50 (pIC50) is 6.51.
Same read-out and setting: as for `O=c1ccn(-c2ccncc2)nc1-c1ccnn1-c1cccc(Br)c1` [Example 97, 3-[2-(3-Bromo-phenyl)-2H-pyrazol-3-yl]-1-pyridin-4-yl-1H-pyridazin-4-one], the figure is 7.77; as for `C#Cc1cccc(-n2nccc2-c2nn(-c3ccncc3)ccc2=O)c1` [Example 99, 3-[2-(3-Ethynyl-phenyl)-2H-pyrazol-3-yl]-1-pyridin-4-yl-1H-pyridazin-4-one], 7.74.
On the same count and under the same terms, as for `O=c1ccn(-c2ccc3cnccc3c2)nc1-c1ccnn1-c1ccccc1F` [Example 100, 3-[2-(2-Fluoro-phenyl)-2H-pyrazol-3-yl]-1-isoquinolin-6-yl-1H-pyridazin-4-one], the figure is 7.51; as for `O=c1ccn(-c2ccc3cnccc3c2)nc1-c1ccnn1-c1cccc(F)c1` [Example 101, 3-[2-(3-Fluoro-phenyl)-2H-pyrazol-3-yl]-1-isoquinolin-6-yl-1H-pyridazin-4-one], 7.39.
The same measure, in the same setting: the value for `O=c1ccn(-c2ccc3ncccc3c2)nc1-c1ccnn1-c1ccccc1F` [Example 102, 3-[2-(2-Fluoro-phenyl)-2H-pyrazol-3-yl]-1-quinolin-6-yl-1H-pyridazin-4-one] was 7.70; that for `O=c1ccn(-c2ccc3ncccc3c2)nc1-c1ccnn1-c1cccc(Cl)c1` [Example 103, 3-[2-(3-Chloro-phenyl)-2H-pyrazol-3-yl]-1-quinolin-6-yl-1H-pyridazin-4-one] was 8.15.
